Laboratory results as given in patent publication US9408885B2, “Combinations of therapeutic agents for treating melanoma” (VIB VZW, priority 2011, dated 2016).

Tests used:
[1] = test system: p53 pathway in MM cell lines overexpressing MDM4; assay: p53 tumor suppressor response (p53 and p21 protein levels) in short-term cultured melanoma cell lines; assay type: cell-based, human; settings: all but one (MM87) of the cell lines overexpressing MDM4; nutlin-3 at high concentrations
Experimental: Cells, adult tissue samples, or tumors were lysed in Giordano buffer (50 mM Tris-HCl (pH 7.4); 250 mM NaCl; 0.1% Triton X-100; 5 mM EDTA) containing phosphatase and protease inhibitors (Sigma). The adult tissue samples were sonicated three times 10 sec. […] The fractionated extracts were then transferred to a PVDF membrane (iBlot® Dry Blotting System). Membranes were blocked in Tris-buffered saline, 0.2% Tween-20 (TBST) containing 5% or 10% non-fat dry milk, and subsequently incubated with the appropriate primary antibody. Membranes were washed five times with TBST and incubated with either horseradish peroxidase-conjugated horse anti-mouse or goat anti-rabbit secondary antibody (Cell Signaling). After five washes with TBST, proteins were detected by enhanced chemiluminescense “ECL Western Blotting Detection Reagents” (Amersham Biosciences) or “SuperSignal West Femto Maximum Sensitivity Substrate” (Thermo Scientific) and visualized by exposure to X-ray film (Amersham Biosciences).

[2] = test system: MDM4 protein in A375 cells; assay: MDM4 protein expression level, A375; assay type: cell-based, human; settings: A375, 5 μM, 24 hours
Experimental: (§1) FIG. 4: AKT inhibitors destabilize the MDM4 protein levels in melanomas.
(§2) In the present example we applied the Akt IV inhibitor on two different melanoma cell lines (i.e., the human amelanotic melanoma cell line A375 and the metastatic 451-lu human melanoma cell line, the latter also described in D. Herlyn et al. (1990), Cancer Research 50, 2296-2302).
(§3) Cells, adult tissue samples, or tumors were lysed in Giordano buffer (50 mM Tris-HCl (pH 7.4); 250 mM NaCl; 0.1% Triton X-100; 5 mM EDTA) containing phosphatase and protease inhibitors (Sigma). The adult tissue samples were sonicated three times 10 sec. The protein concentration was determined by Bradford assay (OD 595 nm; Bio-Rad Protein Assay) and 40 μg of each sample were fractionated by SDS-PAGE (Invitrogen; NuPAGE® Novex® 4-12% Bis-Tris Gel). The fractionated extracts were then transferred to a PVDF membrane (iBlot® Dry Blotting System). Membranes were blocked in Tris-buffered saline, 0.2% Tween-20 (TBST) containing 5% or 10% non-fat dry milk, and subsequently incubated with the appropriate primary antibody. […] After five washes with TBST, proteins were detected by enhanced chemiluminescense “ECL Western Blotting Detection Reagents” (Amersham Biosciences) or “SuperSignal West Femto Maximum Sensitivity Substrate” (Thermo Scientific) and visualized by exposure to X-ray film (Amersham Biosciences). […]

[3] = test system: MDM4 protein in 451-lu cells; assay: MDM4 protein expression level, 451-lu; assay type: cell-based, human; settings: 5 μM, 24 hours
Experimental: as §1, §2, §3

[4] = test system: MM031 melanoma cells; settings: MM031, 6.25-50 μM Cisplatin or 25-200 μM Melphalan, 24 hours
Experimental: (§4) Cell viability was measured at 24 hours by CellTiter-Glo assay. Data represent the mean (±SD) of at least three biological replicates. […] Data represent the mean (±SD) of at least three biological replicates. […] Data represent the mean (±SD) of at least three biological replicates.

[5] = test system: MM011 melanoma cells; settings: MM011, 6.25-50 μM Cisplatin or 25-200 μM Melphalan, 24 hours
Experimental: as §4

Structure (SMILES): COc1cccc2c1C(=O)c1c(O)c3c(c(O)c1C2=O)C[C@@](O)(C(=O)CO)C[C@@H]3O[C@H]1C[C@H](N)[C@H](O)[C@H](C)O1 [doxorubicin]
- p53 protein levels and p21 expression [1]: increased p53 protein levels and induction of expression of p21

Structure (SMILES): CC[n+]1c(/C=C/N(C)c2ccccc2)n(-c2ccccc2)c2ccc(-c3nc4ccccc4s3)cc21.[I-] [Akt IV inhibitor]
- protein expression level of MDM4 [2]: down-regulate
- protein expression level of MDM4 [3]: down-regulate

Structure (SMILES): COc1ccc(C2=N[C@@H](c3ccc(Cl)cc3)[C@@H](c3ccc(Cl)cc3)N2C(=O)N2CCNC(=O)C2)c(OC(C)C)c1 [nutlin-3]
- p53 protein levels and p21 expression [1]: increased p53 protein levels and induction of expression of p21

Structure (SMILES): N.N.[Cl][Pt][Cl] [cisplatin]
- growth inhibition, alkylating agent alone [4]: variable growth inhibition effects
- growth inhibition, alkylating agent alone [5]: variable growth inhibition effects

Structure (SMILES): N[C@@H](Cc1ccc(N(CCCl)CCCl)cc1)C(=O)O [melphalan]
- growth inhibition, alkylating agent alone [4]: variable growth inhibition effects
- growth inhibition, alkylating agent alone [5]: variable growth inhibition effects
